Assay results as given in article PMC9454089, “Structural and Mechanistic Evidence for Calcium Interacting Sites in the HIV Transmembrane Protein gp41 Involved in Membrane Fusion” (Biochemistry, 2022).
Read-outs that look alike come from different tables or passages of the source. Residues, ends and D or L forms follow the SMILES beside them.

Test system: gp41 mediated cell–cell fusion (HXB2 strain HIV-1 Env; HL2-3 / TZM-bl cells)
Format: cell-based
Settings: Figure 3, TZM-bl target and HL2/3 effector cells, 6 h coculture at 37 °C, luciferase, average ± S.E.M., n = 3, read-out: IC50, inhibition of cell–cell fusion
Procedure: Effector cells were the Env expressing cells HL2-3, a HeLa-derived cell line which constitutively expresses the HXB2 strain of the HIV-1 Env glycoprotein along the Tat protein, and as target cells, TZM-bl cells were used. The fusion of HL2-3 cells with TZM-bl cells was assessed through luciferase expression. The TZM-bl cells were seeded at 2 × 10^4 cells/well overnight in 96-well plates. The medium was then aspirated from each well and replaced with serum-free DMEM containing 40 μg/mL DEAE-dextran. […] Upon addition of the peptides, the HL2-3 cells were added to the TZM-bl cells in serum-free DMEM containing 40 μg/mL DEAE-dextran at a 1:1 cell ratio. The cells were cocultured at 37 °C for 6 h to allow the fusion to occur. Luciferase activity was analyzed using the Steady-Glo luciferase assay kit (Promega). Fitting of the data points was performed according to the following equation, derived from Hills’ equation [drawing 1]
For the fitting, we uploaded the X and Y values of the data into a nonlinear least-square regression (curve fitter) program that provided the IC50 value (parameter A).
A one-tailed Student’s T-test was used. P < 0.05 was considered significant. Analyses were done using GraphPad Prism (data analysis software) version 6.05 (*P ≤ 0.05, **P ≤ 0.01, and ***P ≤ 0.001).

| Structure (SMILES) | IC50 (0 mM Ca2+) | IC50 (2 mM Ca2+) | IC50 (5 mM Ca2+) |
| --- | --- | --- | --- |
| CC[C@H](C)[C@H](NC(=O)CNC(=O)[C@H](Cc1c[nH]c2ccccc12)NC(=O)[C@@H](NC(=O)[C@@H](NC(=O)[C@H](CC(C)C)NC(=O)[C@H](CCC(N)=O)NC(=O)[C@H](CC(C)C)NC(=O)[C@H](CC(C)C)NC(=O)[C@H](C)NC(=O)[C@H](CCC(N)=O)NC(=O)[C@H](CCC(N)=O)NC(=O)[C@H](C)NC(=O)[C@H](C)NC(=O)[C@@H](NC(=O)[C@H](C)NC(=O)[C@H](C)NC(=O)[C@H](CC(C)C)NC(=O)[C@H](CC(C)C)NC(=O)[C@H](CC(N)=O)NC(=O)[C@H](CC(N)=O)NC(=O)[C@H](CCC(N)=O)NC(=O)[C@H](CCC(N)=O)NC(=O)[C@H](CCC(N)=O)NC(=O)[C@@H](NC(=O)[C@@H](NC(=O)CNC(=O)[C@@H](N)CO)[C@@H](C)CC)C(C)C)[C@@H](C)CC)[C@@H](C)O)C(C)C)C(=O)N[C@@H](CCCCN)C(=O)N[C@@H](CCC(N)=O)C(=O)N[C@@H](CC(C)C)C(=O)N[C@@H](CCC(N)=O)C(=O)N[C@@H](C)C(=O)N[C@@H](CCCNC(=N)N)C(=O)N[C@H](C(=O)N[C@@H](CC(C)C)C(N)=O)[C@@H](C)CC [N36 3A] (H-SGIVQQQNNLLAAIAAQQALLQLTVWGIKQLQARIL-NH2) | 2980 ± 1070 nM | 262 ± 180 nM | 800 ± 140 nM |
| CC[C@H](C)[C@H](NC(=O)[C@H](CCC(=O)O)NC(=O)[C@H](CCCNC(=N)N)NC(=O)[C@H](C)NC(=O)[C@H](Cc1c[nH]c2ccccc12)NC(=O)[C@H](CCC(=O)O)NC(=O)[C@H](CCSC)NC(=O)[C@@H](N)Cc1c[nH]c2ccccc12)C(=O)N[C@@H](CC(N)=O)C(=O)N[C@@H](CC(N)=O)C(=O)N[C@@H](Cc1ccc(O)cc1)C(=O)N[C@H](C(=O)N[C@@H](CO)C(=O)N[C@@H](CC(C)C)C(=O)N[C@H](C(=O)N[C@@H](Cc1c[nH]cn1)C(=O)N[C@@H](CO)C(=O)N[C@@H](CC(C)C)C(=O)N[C@H](C(=O)N[C@@H](CCC(=O)O)C(=O)N[C@@H](CCC(=O)O)C(=O)N[C@@H](CO)C(=O)N[C@@H](CCC(N)=O)C(=O)N[C@@H](CC(N)=O)C(=O)N[C@@H](CCC(N)=O)C(=O)N[C@@H](CCC(N)=O)C(=O)N[C@@H](CCC(=O)O)C(=O)N[C@@H](CCCCN)C(=O)N[C@@H](CC(N)=O)C(=O)N[C@@H](CCC(=O)O)C(=O)N[C@@H](CCC(N)=O)C(=O)N[C@@H](CCC(=O)O)C(=O)N[C@@H](CC(C)C)C(=O)N[C@@H](CC(C)C)C(N)=O)[C@@H](C)CC)[C@@H](C)CC)[C@@H](C)O [C34 D-A] | 0.6 ± 0.4 nM | 1.5 ± 0.7 nM |  |
